Laboratory results published in US11253515B2, “Pharmaceutical compositions and dosage forms” (IGNYTA, INC., priority 2017, dated 2022).

Assays:
[1] = Excipient compatibility of 1:1 acid admixtures, HPLC after three months storage; type: physicochemical; settings: 1:1 weight ratio dry powder mixture, open vial
Procedure: (§1) The mixtures were prepared in duplicate for each sample, and stored in open top, 4 mL glass vials at (1) 60° C./dry heat and (2) 40° C. and 75% relative humidity (RH).
The HPLC traces analyses were conducted on an Agilent 1100 LC, equipped with Agilent Diode Array Detector and Chemstation Software using the conditions found in the table below.

[2] = Physical state and moisture uptake of 1:1 acid admixtures on storage; type: physicochemical; settings: 40° C. and 75% RH, open top vial
Procedure: as §1
All admixture samples and the control samples stored at the 60° C. and dry heat condition remained as dry powders.

[3] = Comparative pharmacokinetic study of F1 and F2 with lansoprazole (Example 12); type: in vivo, human; settings: 800 mg fixed dose, 23 healthy subjects, body weights 55 to 106 kg
Procedure: A comparative pharmacokinetic study in healthy, human subjects was conducted comparing a 200 mg dosage strength of pharmaceutical composition F1 (as described in Example 11) with a 200 mg dosage strength pharmaceutical composition F2 (as described in Example 10).
Pharmaceutical compositions F1 and F2, along with and lansoprazole, were administered orally with approximately 240 mL of water, according to the randomization scheme. Lansoprazole was administered as 30 mg lansoprazole delayed-release capsules.
Subjects were randomized into two groups, A and B. Periods 1 and 2 were conducted as a crossover design under fasting conditions where all subjects received F1 and F2. […] A representative summary of Periods 1, 2, and 3 and the pharmaceutical compositions subjects in groups A and B will receive in each Period is found below.
Lansoprazole administration on days 1 to 9 was conducted in the morning, approximately 1.5 hours prior to administration of either F1 or F2 at hour 0 on day 4.
Subjects were randomized and received 3 out of 4 treatments in one of the following sequences: […] (i.e., Periods 1 and 2 were conducted as a crossover design under fasting conditions [Treatments A and B]). […] Each subject received each of the 3 assigned treatments on one occasion.
Treatments A and C utilized 200 mg strength F1 capsules.
Treatments B and D utilized 200 mg F2 capsules. […]

[4] = Single-dose food effect study in dogs; type: in vivo; settings: formulation that did not comprise at least one acidulant
Excerpt: Such food effects can cause difficulty during human testing of drugs as the fed or fasted condition of the patient can cause exposure or bioavailability of drugs to vary widely.

[5] = human, in vivo
TrkB = TrkB (Homo sapiens, UniProt Q16620); settings: background statement; cited from earlier work
TrkC = TrkC (Homo sapiens, UniProt Q16288); settings: background statement; cited from earlier work
[6] = molecular target: anaplastic lymphoma kinase (ALK) (Homo sapiens, UniProt Q9UM73); settings: background statement; cited from earlier work
[7] = three months at 60° C. Dry Heat

TrkC, sequence (Q16288 32-839): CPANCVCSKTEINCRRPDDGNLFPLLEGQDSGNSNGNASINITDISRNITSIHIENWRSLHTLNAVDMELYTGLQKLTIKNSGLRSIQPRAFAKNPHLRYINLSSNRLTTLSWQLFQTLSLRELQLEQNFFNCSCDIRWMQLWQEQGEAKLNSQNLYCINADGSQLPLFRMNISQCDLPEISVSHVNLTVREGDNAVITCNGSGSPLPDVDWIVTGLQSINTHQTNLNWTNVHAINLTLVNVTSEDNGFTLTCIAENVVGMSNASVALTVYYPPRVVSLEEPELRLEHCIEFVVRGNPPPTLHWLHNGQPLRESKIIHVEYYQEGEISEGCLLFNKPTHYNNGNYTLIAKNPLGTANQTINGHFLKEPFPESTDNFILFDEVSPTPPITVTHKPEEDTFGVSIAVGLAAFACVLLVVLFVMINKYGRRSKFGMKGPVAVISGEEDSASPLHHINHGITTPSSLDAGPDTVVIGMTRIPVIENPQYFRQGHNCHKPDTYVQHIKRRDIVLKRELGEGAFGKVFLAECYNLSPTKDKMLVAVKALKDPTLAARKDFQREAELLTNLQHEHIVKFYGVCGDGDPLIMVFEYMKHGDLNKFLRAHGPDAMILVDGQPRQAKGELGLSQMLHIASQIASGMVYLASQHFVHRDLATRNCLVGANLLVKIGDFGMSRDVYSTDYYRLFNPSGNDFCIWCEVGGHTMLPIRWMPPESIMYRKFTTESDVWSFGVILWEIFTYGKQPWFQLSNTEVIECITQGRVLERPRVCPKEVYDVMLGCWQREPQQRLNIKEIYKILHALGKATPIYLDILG
anaplastic lymphoma kinase (ALK), sequence (Q9UM73 19-1620): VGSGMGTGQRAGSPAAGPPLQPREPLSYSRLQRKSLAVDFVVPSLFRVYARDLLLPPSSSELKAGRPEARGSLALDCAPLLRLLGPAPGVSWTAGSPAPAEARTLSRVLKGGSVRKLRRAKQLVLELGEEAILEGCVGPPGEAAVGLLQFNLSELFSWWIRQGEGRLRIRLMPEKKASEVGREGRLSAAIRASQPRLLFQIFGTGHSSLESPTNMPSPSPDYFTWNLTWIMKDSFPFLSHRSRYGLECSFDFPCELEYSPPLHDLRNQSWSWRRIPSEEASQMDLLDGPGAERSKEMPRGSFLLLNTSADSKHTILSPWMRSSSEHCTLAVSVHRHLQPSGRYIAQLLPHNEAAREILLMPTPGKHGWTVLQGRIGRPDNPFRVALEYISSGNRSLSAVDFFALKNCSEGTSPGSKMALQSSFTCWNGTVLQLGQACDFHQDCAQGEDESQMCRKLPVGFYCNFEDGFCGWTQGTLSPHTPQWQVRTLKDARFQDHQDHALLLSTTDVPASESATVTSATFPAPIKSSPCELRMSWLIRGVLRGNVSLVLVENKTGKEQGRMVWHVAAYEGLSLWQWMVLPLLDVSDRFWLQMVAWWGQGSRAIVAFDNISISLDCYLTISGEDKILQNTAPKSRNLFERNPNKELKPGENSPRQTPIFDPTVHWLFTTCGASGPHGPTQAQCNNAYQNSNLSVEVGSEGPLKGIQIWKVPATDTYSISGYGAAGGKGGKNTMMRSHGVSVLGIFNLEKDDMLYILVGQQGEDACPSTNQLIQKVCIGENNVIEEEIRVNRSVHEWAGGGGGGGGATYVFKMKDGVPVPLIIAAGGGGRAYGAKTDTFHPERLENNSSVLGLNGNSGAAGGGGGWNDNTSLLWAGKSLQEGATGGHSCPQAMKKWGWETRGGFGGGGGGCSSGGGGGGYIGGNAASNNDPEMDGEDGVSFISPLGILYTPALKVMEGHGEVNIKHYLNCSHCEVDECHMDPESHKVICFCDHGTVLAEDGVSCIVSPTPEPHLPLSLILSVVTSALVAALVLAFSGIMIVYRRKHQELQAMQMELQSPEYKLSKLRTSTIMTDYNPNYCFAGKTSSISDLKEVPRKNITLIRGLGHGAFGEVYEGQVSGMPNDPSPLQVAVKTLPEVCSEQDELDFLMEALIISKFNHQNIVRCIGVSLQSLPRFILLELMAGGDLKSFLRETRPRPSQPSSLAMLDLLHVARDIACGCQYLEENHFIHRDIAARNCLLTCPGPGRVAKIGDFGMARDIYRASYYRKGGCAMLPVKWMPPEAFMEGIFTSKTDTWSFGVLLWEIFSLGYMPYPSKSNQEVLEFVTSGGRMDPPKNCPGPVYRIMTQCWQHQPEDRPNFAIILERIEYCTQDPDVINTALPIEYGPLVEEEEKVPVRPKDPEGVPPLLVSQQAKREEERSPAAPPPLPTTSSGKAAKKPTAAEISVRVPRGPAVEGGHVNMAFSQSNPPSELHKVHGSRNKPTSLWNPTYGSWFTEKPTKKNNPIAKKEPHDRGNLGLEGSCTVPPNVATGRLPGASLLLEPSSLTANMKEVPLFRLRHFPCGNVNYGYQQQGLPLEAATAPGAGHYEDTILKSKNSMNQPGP
TrkB, sequence (Q16620 32-822): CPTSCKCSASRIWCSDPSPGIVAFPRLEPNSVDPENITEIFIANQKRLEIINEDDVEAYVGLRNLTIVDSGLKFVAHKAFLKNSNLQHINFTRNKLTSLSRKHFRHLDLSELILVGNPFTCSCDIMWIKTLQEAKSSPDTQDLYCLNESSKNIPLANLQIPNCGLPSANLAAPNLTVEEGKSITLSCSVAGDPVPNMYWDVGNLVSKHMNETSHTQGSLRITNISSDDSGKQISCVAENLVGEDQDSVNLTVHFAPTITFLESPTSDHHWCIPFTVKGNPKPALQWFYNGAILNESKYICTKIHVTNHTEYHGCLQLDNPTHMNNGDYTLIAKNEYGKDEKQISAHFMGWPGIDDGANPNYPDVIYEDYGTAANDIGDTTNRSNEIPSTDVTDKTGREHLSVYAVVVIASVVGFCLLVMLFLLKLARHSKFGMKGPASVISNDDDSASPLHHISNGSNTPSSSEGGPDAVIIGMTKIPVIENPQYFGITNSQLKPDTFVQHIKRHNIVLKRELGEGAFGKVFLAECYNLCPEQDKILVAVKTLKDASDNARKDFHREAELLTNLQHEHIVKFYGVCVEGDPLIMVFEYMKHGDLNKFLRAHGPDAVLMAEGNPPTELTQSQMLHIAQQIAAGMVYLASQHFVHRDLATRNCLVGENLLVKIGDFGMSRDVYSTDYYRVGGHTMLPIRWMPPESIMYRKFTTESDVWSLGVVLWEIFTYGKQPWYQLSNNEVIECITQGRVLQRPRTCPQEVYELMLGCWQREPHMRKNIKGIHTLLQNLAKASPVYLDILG

% UV Purity ([1]; three months at 40° C./75% RH): 99.2%
Most abundant impurity (area %) ([1]; three months at 40° C./75% RH, listed as Control): 0.13%
Most abundant impurity (area %) ([1]; three months at 40° C./75% RH, listed as control): 0.13%
% UV Purity [1, 7]: 99.3%
Most abundant impurity (area %) [1, 7]: 0.13%
physical state after 13 days of storage [2]: remained dry
exposure levels under fed conditions compared to fasting conditions [4]: approximately 2 fold
exposures with concomitant proton pump inhibitor drugs (PPIs), such as lansoprazole [5]: variable
AUC higher when taken with food ([5]; 400 mg/m2): ~50%
Cmax higher with food ([5]; 400 mg/m2): approximately 150%
SMILES: CN1CCN(c2ccc(C(=O)Nc3n[nH]c4ccc(Cc5cc(F)cc(F)c5)cc34)c(NC3CCOCC3)c2)CC1 [N-[5-(3,5-difluorobenzyl)-1H-indazol-3-yl]-4-(4-methyl-piperazin-1-yl)-2-(tetrahydro-pyran-4-ylamino)-benzamide]
correlation of total exposure with body weight or body surface area [3]: did not correlate with body weight or body surface area
inhibition of tyrosine kinase (TrkB): potent inhibitor
inhibition of tyrosine kinase (TrkC): potent inhibitor
inhibition of tyrosine kinase [6]: potent inhibitor
